What was measured:
LRRK2 [1] = test: LRRK2 GTP binding assay (GTP-agarose pull-down from lysates of transfected HEK293T cells); set-up: species or system human; details: for effect on wild type and PD-linked mutant LRRK2 GTP-binding activity: 10 μM
Procedure: LRRK2 kinase assay was adapted from previous studies using autophosphorylation of cell lysates or brain homogenates. Briefly, HEK 293T were transiently transfected with various LRRK2 variants or kinase domain fragments for 36 h, followed by […] serum starvation for 12 h, and then treated with compound 70 and 68 for 1 h. The cells were harvested using lysis buffer (Cell Signaling). Mouse brains were homogenated using RIPA buffer (Cell Signaling). The resulting cell lysates or brain homogenates were immunoprecipitated using anti-Flag antibodies. The immunoprecipitates were subjected to Western blot using anti-phosphorylation LRRK2 antibodies at S935 and S2032 residues as described previously. In some cases, immunoprecipitates were incubated with kinase reaction buffer for 90 min at 30° C. containing 50 mM MgCl2, 500 μM ATP, and 10 μCi of [γ-^32P]ATP (3,000 Ci/mmol) followed by 4-12% SDS/PAGE separation and blotted onto PVDF membranes. Quantification was performed with a phosphoimager (Bio-Rad Molecular Imager FX). GTP binding assays were performed. […] The resulting beads were washed three times with cell lysis buffer, and bound protein was eluted by adding SDS-PAGE sample buffer and heating for 10 min at 72° C. Precipitates were subjected to Western blot analysis using anti-Flag antibodies.
GTP binding assays were performed using GTP-agarose beads (Sigma) as described previously. Lysates of HEK 293T cells expressing LRRK2 proteins were incubated with 68 or FX2149 at various concentrations for 1 h. The GTP-agarose beads were added for an additional 2 h. The samples were subjected to Western blot analysis using anti-Flag antibodies. LRRK2 kinase assays were performed using LRRK2 phosphorylation and in vitro ^32P incorporation methods as described previously.

G2019S-LRRK2 = target: T1, G2019S-LRRK2 (Homo sapiens, UniProt Q5S007, G2019S); test: LRRK2 phosphorylation (kinase) assay in HEK293T cells expressing G2019S-LRRK2; assay type: cell-based; details: 1 h
T1 construct: expressed in transfected cells; host or cells: HEK293T
Procedure: LRRK2 kinase assay was adapted from previous studies using autophosphorylation of cell lysates or brain homogenates. Briefly, HEK 293T were transiently transfected with various LRRK2 variants or kinase domain fragments for 36 h, followed by no serum starvation for 12 h, and then treated with compound 70 and 68 for 1 h. The cells were harvested using lysis buffer (Cell Signaling). Mouse brains were homogenated using RIPA buffer (Cell Signaling). The resulting cell lysates or brain homogenates were immunoprecipitated using anti-Flag antibodies. The immunoprecipitates were subjected to Western blot using anti-phosphorylation LRRK2 antibodies at S935 and S2032 residues as described previously. In some cases, immunoprecipitates were incubated with kinase reaction buffer for 90 min at 30° C. containing 50 mM MgCl2, 500 μM ATP, and 10 μCi of [γ-^32P]ATP (3,000 Ci/mmol) followed by 4-12% SDS/PAGE separation and blotted onto PVDF membranes. Quantification was performed with a phosphoimager (Bio-Rad Molecular Imager FX). GTP binding assays were performed. […]
For LRRK2 phosphorylation assays, HEK293T cells were transfected with various LRRK2 variants for 36 h, then were incubated in media without serum for 12 hours. […] The LRRK2 autophosphorylation with ^32P incorporation was separated by SDS/PAGE gel and quantified with a phosphoimager (Bio-Rad Molecular Imager).

LRRK2 [2] = target: T2, LRRK2 (Mus musculus, UniProt Q5S006, G2019S); test: brain LRRK2 GTP binding in G2019S-LRRK2-BAC transgenic mice; assay type: in vivo; details: for effect on brain LRRK2 GTP binding activity: 1 h after injection
T2 construct: tissue Jackson Laboratory 012467; host or cells: brain homogenate of G2019S-LRRK2-BAC transgenic mice
Procedure: (§1) To assess whether 70 and 68 alter LRRK2 activities in vivo, G2019S-LRRK2-BAC transgenic mice were used. […] Only the effects of 68 on LRRK2 functions were tested in vivo using G2019S-LRRK2-BAC transgenic mice. Vehicle or 68 at 10 and 20 mg/kg was injected intraperitoneally for one hour. Mouse brain homogenates were subjected to LRRK2 autophosphorylation and GTP binding assays.
LRRK2 kinase assay was adapted from previous studies using autophosphorylation of cell lysates or brain homogenates. Briefly, HEK 293T were transiently transfected with various LRRK2 variants or kinase domain fragments for 36 h, followed by […] serum starvation for 12 h, and then treated with compound 70 and 68 for 1 h. The cells were harvested using lysis buffer (Cell Signaling). Mouse brains were homogenated using RIPA buffer (Cell Signaling). The resulting cell lysates or brain homogenates were immunoprecipitated using anti-Flag antibodies. The immunoprecipitates were subjected to Western blot using anti-phosphorylation LRRK2 antibodies at S935 and S2032 residues as described previously. In some cases, immunoprecipitates were incubated with kinase reaction buffer for 90 min at 30° C. containing 50 mM MgCl2, 500 μM ATP, and 10 μCi of [γ-^32P]ATP (3,000 Ci/mmol) followed by 4-12% SDS/PAGE separation and blotted onto PVDF membranes. Quantification was performed with a phosphoimager (Bio-Rad Molecular Imager FX). GTP binding assays were performed. Cell lysates or brain homogenates (100 μg protein/per reaction) were incubated with vehicle or compounds at 1-50 μM concentration for 1 h followed by addition of GTP-agarose beads (Sigma) for an additional 2 h at 4° C. The resulting beads were washed three times with cell lysis buffer, and bound protein was eluted by adding SDS-PAGE sample buffer and heating for 10 min at 72° C. Precipitates were subjected to Western blot analysis using anti-Flag antibodies.
To assess the effects of FX2149 on LRRK2 in brains compared with 68, both 68 and FX2149 were injected intraperitoneally into G2019S-BAC-LRRK2 transgenic mice at 10 and 20 mg/kg doses. One hour after the injection, the mouse brain homogenates were subjected to LRRK2 GTP binding and kinase assays. Both 68 (20 mg/kg) and FX2149 (10 mg/kg) reduced LRRK2 GTP binding activity in mouse brains (FIGS. 32 and 33). […] To further confirm the effect of FX2149, we also assessed a LRRK2 downstream effector, 4E-BP phosphorylation. 4E-BP is a […] that can be phosphorylated by LRRK2. […] FX2149 at a 10 mg/kg dose reduced 4E-BP up to 15% of the untreated control group, while 68 at a 20 mg/kg dose reduced 4E-BP up to 15% of the untreated control group.

LRRK2 [3] = target: T2, LRRK2; test: brain LRRK2 phosphorylation (kinase activity) in G2019S-LRRK2-BAC transgenic mice; assay type: in vivo; details: 1 h after injection
Procedure: as §1
LRRK2 kinase assay was adapted from previous studies using autophosphorylation of cell lysates or brain homogenates. Briefly, HEK 293T were transiently transfected with various LRRK2 variants or kinase domain fragments for 36 h, followed by no serum starvation for 12 h, and then treated with compound 70 and 68 for 1 h. The cells were harvested using lysis buffer (Cell Signaling). Mouse brains were homogenated using RIPA buffer (Cell Signaling). The resulting cell lysates or brain homogenates were immunoprecipitated using anti-Flag antibodies. […] Quantification was performed with a phosphoimager (Bio-Rad Molecular Imager FX). […]
To assess the effects of FX2149 on LRRK2 in brains compared with 68, both 68 and FX2149 were injected intraperitoneally into G2019S-BAC-LRRK2 transgenic mice at 10 and 20 mg/kg doses. […] To further confirm the effect of FX2149, we also assessed a LRRK2 downstream effector, 4E-BP phosphorylation. […]

[4] = tested on: SH-SY5Y cells expressing G2019S-LRRK2; test: SH-SY5Y cell viability assay (G2019S-LRRK2-induced neuronal degeneration); assay type: cell-based, human
Procedure: Mouse primary cortical neurons were derived from CD-1 outbred mice (The Jackson Laboratory) at embryonic day 16 and cultured on 24 well plates coated with laminin- and poly-D-lysine-coated plates (BD Biosource, San Diego). Neurons were grown in neurobasal medium containing B-27 supplement, Glutamax, and penicillin/streptomycin. LRRK2 constructs were transfected into mouse primary cortical neurons using Lipofectamine 2000 (Invitrogen) according to the manufacturer's protocol. Cell viability assays were conducted. pcDNA3.1-GFP and FLAG-LRRK2 constructs at 1:15 ratio were cotransfected into SH-SY5Y cells (neurons) in 10% FBS OPTI-I media for 24 h. The media were changed to DMEM containing N2 supplement for 24 h. Cell viability was measured by counting GFP-positive viable cells (neurons) from 20 randomly selected fields using fluorescence microscopy. Viable cells (neurons) with one smooth extension (neurite) twice the length of the cell body were counted.
SH-SY5Y cell viability assays were conducted as described. […] Cell viability was measured by counting the healthy viable cells that contained at least one smooth extension (neurite) that was twice the length of the cell body from 20 randomly selected fields using fluorescence microscopy. […] The quantification for LRRK2 toxicity was performed by an investigator who was blind to transfection groups.

[5] = tested on: SH-SY5Y cells expressing mutant G2019S-LRRK2; test: TUNEL assay in SH-SY5Y cells expressing mutant LRRK2; assay type: cell-based, human; details: 100 nM
Procedure: Expression of mutant G2019S-LRRK2 led to neuronal degeneration in both SH-SY5Y and mouse primary cortical neurons as assessed by cell viability and DNA fragmentation (TUNEL) assays as previously described. […] To further confirm these findings, mouse primary cortical neurons were used to assess the effects of 70 and 68. Treatment of 70 (2 and 5 nM) and 68 (5 and 10 nM) protected against mutant LRRK2-induced neuronal degeneration (FIG. 15, panels (a) and (c)). Moreover, 70 and 68 both decreased the TUNEL-positive SH-SY5Y cells expressing mutant LRRK2 (FIG. 15, panel (d)).
SH-SY5Y cell viability assays were conducted as described. Cells were co-transfected with GFP and various pcDNA3.1-LRRK2 plasmids at a 1:15 ratio for 24 h in 10% FBS OPTI-I media and then changed to DMEM with N2 supplement for 24 h. Compounds were added after 4-h transfection. Cell viability was measured by counting the healthy viable cells that contained at least one smooth extension (neurite) that was twice the length of the cell body from 20 randomly selected fields using fluorescence microscopy. TUNEL assays were performed according to the manufacturer's instructions as described previously. The experiments were repeated three times in duplicate. The quantification for LRRK2 toxicity was performed by an investigator who was blind to transfection groups.

[6] = tested on: LPS-induced microglia activation and LRRK2 upregulation; test: LPS-based mouse neuroinflammation model, immunohistochemistry of substantia nigra; assay type: in vivo
Procedure: G2019S-LRRK2-BAC (Jackson, Lab. Cat: 012467) transgenic mice were food deprived for 4 h before surgery. There were 4 to 6 mice in each experimental group. Mice were anesthetized with isoflurane. LPS ([…] containing 15,000 endotoxin units, Sigma) was injected into the substantia nigra pars compacta unilaterally with a 1 μl volume at 0.2 μl/min flow rate as described previously. The stereotaxic coordinates were −3.4 anteroposterior (AP), −1.1 ML, and −3.9 DV with respect to bregma. After injection, the needle was kept in place for 5 min before withdrawal to avoid LPS leakage up the cannula track. […] Then 68 was injected twice daily for three days. The mice were perfused with 4% paraformaldehyde (PFA) in PBS and the brains were dissected and frozen in isopentane and stored in a −80° C. freezer for immunostaining Animal usage was approved by the University of Maryland School of Pharmacy.
Mice were perfused with saline and 4% paraformaldehyde. Frozen mouse brains were sectioned through the substantia nigra at 30 μm and the sections were subjected to immunohistochemical analysis as described previously. Briefly, frozen sections were placed in 0.6% H2O2 in methanol for 10 min followed by 5% normal goat serum (Sigma) to block non-specific reactions. Sections were then sequentially incubated with primary antibodies and biotinylated anti-rabbit secondary antibodies (Vector Laboratories) and avidin-biotin-peroxidase complex (ABC Elite kit, Vector Laboratories). Anti-LRRK2 (MJFF), anti-phosphorylated LRRK2 S935 (MJFF), and anti-isolectin antibodies were used as primary antibodies. Isolectin-B4:FITC or Isolectin-B4:Biotin were from Sigma. Some tissue sections were visualized by peroxidase reaction using diaminobenzidine (DAB, Sigma). Some tissue sections were probed with Alexa Fluor 488 goat anti-mouse (rabbit) IgG and Alexa Fluor 568 goat anti-mouse (rabbit) IgG (Invitrogen) as secondary antibodies. The specificity of the immunostaining was checked by incubating adjacent sections with each preabsorbed primary antibody. […] The density of red and green fluorescence in the 6 consecutive sections crossing the LPS injection site of each mouse was quantified using NIH image-J software. Six microscope field images (20×) from one brain section were subjected to fluorescence density quantification. […]
G2019S-LRRK2-BAC transgenic mice were anesthetized with isoflurane and injected with LPS (15,000 endotoxin units, 5 μg, Sigma) for each mouse in the substantia nigra pars compacta (SN) unilaterally as described previously. […] Some sections were added with anti-rabbit (mouse) biotinylated secondary antibody and avidin-biotin-peroxidase complex (Vector Laboratories), and detected by diaminobenzidine (DAB, Sigma). […]

T2 sequence (Q5S006 whole entry G2019S): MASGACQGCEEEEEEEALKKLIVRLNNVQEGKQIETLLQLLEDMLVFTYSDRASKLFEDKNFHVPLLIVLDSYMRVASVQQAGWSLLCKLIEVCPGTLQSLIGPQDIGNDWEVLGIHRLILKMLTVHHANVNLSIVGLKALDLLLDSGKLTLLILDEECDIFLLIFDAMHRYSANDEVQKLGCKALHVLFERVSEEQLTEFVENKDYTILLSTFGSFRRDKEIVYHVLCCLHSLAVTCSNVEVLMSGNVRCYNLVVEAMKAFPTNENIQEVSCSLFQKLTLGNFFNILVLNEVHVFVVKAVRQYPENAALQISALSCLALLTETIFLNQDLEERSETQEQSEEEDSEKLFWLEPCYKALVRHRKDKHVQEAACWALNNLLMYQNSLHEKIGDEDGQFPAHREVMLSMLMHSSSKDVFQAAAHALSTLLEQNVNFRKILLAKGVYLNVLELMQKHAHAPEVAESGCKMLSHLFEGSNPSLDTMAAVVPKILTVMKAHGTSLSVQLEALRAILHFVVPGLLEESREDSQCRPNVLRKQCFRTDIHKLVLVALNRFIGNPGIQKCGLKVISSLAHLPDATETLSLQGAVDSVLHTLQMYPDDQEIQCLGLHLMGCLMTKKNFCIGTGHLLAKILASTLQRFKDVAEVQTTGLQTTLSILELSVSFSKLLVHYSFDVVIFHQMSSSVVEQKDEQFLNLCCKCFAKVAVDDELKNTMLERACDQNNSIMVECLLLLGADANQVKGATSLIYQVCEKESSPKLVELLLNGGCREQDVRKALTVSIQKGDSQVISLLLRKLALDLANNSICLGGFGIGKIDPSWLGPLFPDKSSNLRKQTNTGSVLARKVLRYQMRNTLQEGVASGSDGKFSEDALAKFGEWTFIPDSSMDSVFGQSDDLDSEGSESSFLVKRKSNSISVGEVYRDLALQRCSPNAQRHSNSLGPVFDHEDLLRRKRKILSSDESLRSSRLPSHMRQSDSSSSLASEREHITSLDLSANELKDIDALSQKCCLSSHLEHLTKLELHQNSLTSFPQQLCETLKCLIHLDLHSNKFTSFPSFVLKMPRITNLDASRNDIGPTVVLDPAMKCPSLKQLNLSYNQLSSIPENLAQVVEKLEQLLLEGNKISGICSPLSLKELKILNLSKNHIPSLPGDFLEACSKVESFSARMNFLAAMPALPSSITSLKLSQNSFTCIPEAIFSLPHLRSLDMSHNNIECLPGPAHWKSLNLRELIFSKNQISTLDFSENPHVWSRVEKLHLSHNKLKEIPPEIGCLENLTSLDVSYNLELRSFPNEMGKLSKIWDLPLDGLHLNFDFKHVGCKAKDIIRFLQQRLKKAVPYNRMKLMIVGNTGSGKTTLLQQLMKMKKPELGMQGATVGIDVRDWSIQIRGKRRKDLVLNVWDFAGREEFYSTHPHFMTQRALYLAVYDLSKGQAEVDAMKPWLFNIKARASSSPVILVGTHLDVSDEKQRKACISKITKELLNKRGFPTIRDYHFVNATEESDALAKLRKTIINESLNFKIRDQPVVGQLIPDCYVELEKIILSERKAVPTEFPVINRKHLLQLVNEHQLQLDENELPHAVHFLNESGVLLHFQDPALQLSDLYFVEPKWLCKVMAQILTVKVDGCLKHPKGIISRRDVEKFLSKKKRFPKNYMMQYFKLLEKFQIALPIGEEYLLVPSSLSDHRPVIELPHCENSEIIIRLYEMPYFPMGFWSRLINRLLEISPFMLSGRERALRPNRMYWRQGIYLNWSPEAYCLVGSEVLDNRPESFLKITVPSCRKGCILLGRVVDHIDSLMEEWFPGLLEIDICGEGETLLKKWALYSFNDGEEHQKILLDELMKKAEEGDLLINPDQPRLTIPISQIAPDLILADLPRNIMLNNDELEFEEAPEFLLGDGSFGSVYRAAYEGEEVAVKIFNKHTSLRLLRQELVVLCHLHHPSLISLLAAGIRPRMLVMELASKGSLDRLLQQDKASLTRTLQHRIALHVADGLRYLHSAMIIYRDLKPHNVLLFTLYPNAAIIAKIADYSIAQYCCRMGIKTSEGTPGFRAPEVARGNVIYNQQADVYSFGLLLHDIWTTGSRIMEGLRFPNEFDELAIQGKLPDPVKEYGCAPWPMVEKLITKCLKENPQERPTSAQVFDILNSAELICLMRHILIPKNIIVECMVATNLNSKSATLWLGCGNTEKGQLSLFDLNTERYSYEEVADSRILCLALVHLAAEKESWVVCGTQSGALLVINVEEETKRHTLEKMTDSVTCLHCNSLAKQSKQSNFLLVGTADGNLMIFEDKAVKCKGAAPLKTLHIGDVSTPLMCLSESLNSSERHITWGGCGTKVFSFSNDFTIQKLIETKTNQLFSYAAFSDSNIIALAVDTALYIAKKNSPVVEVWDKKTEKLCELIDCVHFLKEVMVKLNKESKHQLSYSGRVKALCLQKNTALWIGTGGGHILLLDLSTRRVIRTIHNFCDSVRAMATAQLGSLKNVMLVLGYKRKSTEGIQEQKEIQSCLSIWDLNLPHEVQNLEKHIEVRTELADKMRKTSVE
T1 sequence (Q5S007 whole entry G2019S): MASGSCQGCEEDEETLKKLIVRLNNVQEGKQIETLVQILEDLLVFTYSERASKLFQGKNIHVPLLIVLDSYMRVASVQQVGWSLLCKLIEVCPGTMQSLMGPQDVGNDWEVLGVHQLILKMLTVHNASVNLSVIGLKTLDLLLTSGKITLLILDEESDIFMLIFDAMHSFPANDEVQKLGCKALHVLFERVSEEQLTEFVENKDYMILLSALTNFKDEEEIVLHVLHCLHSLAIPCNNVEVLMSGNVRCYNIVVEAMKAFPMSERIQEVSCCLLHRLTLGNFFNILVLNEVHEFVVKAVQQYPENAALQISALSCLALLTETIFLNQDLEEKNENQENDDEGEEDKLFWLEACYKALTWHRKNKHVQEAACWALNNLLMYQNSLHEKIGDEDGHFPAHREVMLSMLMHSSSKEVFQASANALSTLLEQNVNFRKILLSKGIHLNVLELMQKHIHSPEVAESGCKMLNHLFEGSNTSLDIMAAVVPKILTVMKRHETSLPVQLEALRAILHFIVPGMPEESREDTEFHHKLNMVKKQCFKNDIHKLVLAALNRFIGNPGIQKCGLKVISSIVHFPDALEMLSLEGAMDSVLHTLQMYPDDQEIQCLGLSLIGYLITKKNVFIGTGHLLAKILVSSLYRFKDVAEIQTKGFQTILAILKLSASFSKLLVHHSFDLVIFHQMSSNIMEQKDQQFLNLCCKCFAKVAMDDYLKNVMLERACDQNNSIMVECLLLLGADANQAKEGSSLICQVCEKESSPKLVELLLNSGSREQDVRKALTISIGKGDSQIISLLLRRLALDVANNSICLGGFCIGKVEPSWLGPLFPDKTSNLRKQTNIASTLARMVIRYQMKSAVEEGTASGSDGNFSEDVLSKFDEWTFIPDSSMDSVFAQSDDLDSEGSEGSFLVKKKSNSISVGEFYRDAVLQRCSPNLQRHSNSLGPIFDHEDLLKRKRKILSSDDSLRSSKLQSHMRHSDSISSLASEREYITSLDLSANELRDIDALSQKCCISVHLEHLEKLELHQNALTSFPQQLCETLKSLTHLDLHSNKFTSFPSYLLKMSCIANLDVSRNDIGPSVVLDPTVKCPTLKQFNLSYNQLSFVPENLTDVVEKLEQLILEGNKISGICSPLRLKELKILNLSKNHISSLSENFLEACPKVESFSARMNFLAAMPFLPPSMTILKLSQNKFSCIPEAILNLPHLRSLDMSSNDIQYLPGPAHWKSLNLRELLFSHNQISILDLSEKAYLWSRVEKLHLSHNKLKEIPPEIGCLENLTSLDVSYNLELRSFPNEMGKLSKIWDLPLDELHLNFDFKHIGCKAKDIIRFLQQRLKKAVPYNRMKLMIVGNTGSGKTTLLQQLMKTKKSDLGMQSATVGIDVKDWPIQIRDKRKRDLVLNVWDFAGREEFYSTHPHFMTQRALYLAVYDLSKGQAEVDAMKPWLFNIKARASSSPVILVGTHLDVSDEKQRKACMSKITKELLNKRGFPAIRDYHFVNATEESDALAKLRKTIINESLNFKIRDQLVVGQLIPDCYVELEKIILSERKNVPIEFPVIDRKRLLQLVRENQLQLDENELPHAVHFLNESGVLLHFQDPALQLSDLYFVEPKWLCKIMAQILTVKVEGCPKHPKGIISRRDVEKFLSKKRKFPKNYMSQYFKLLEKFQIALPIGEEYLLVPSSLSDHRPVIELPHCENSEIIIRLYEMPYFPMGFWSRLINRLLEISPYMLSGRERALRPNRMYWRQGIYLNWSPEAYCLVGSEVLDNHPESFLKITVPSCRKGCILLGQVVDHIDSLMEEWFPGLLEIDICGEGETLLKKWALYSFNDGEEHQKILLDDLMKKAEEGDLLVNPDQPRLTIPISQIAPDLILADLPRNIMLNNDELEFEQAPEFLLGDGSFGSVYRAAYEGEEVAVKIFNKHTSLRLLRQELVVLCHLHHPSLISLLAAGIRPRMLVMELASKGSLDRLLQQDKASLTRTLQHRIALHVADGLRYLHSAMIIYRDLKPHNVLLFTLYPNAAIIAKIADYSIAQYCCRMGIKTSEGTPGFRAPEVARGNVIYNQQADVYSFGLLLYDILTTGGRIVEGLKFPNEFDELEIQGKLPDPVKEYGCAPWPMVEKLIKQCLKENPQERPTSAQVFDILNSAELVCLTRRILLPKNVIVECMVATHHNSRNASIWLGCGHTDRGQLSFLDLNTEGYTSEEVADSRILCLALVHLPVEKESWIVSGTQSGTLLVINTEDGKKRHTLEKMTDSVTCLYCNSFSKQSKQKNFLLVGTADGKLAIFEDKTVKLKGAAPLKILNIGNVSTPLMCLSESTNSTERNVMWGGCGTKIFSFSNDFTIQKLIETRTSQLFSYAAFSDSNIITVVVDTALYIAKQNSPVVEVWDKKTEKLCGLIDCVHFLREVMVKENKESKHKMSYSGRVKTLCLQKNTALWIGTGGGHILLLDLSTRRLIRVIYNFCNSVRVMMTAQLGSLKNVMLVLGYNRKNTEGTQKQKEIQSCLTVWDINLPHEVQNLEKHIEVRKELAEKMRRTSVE

effect on LRRK2 phosphorylation (G2019S-LRRK2; 10 μM) | effect on brain LRRK2 GTP binding activity (LRRK2 [2]; 20 mg/kg i.p.) | effect on brain LRRK2 phosphorylation (kinase activity) (LRRK2 [3]; 20 mg/kg i.p.) | reduction of G2019S-LRRK2 kinase activity (phosphorylation at S935 and S2032) (G2019S-LRRK2; 100 nM) | effect on brain LRRK2 GTP binding activity (LRRK2 [2]; 10 mg/kg i.p.) | brain (BBB) penetration inferred from brain LRRK2 GTP binding and kinase inhibition (LRRK2 [2]; after i.p. injection) | improvement of in vivo efficacy over 68 (LRRK2 [2]; mouse, in vivo) | effect on brain LRRK2 kinase activity (LRRK2 [3]; 10 mg/kg i.p.) | Compound | effect on wild type and PD-linked mutant LRRK2 GTP-binding activity (LRRK2 [1]) | reduction of LRRK2 GTP binding activity (LRRK2 [1]; 10 nM) | effect on LRRK2 binding with GTP (LRRK2 [1]; 1 and 10 nM) | effect on mutant LRRK2 variants (G2019S and R1441C) bound with GTP (LRRK2 [1]; 1 and 10 nM) | protection against mutant LRRK2-induced neurodegeneration ([4]; 50-200 nM) | viability of cells expressing G2019S-LRRK2 compared with vehicle treated cells ([4]; treated for 48 hours) | TUNEL-positive cells expressing mutant G2019S-LRRK2 [5] | reduction of LPS-induced microglia activation compared with vehicle treated LPS mice ([6]; 10 mg/kg) | LPS-induced LRRK2-positive immunostaining compared with vehicle controls ([6]; 10 mg/kg i.p.) | anti-phosphorylated-LRRK2 immunoactivity ([6]; 10 mg/kg i.p.) | isolectin B4 immunoactivity compared with the LPS alone treated group ([6]; 10 mg/kg i.p., twice daily for three days)
did not alter | did not alter | did not alter |  |  |  |  |  | CC(C)NC(=O)c1cccc(NS(=O)(=O)c2cccnc2)c1 [FX2151, N-isopropyl-3-(pyridine-3-sulfonamido)benzamide] | did not alter |  |  |  |  |  |  |  |  |  | 
 |  |  |  |  |  |  |  | O=C1Nc2ccc(I)cc2/C1=C/c1cc(Br)c(O)c(Br)c1 [GW5074, reference compound] | did not alter |  |  |  |  |  |  |  |  |  | 
 |  |  | ~90% | reduced | taken up into brains at a greater extent | more than 2 fold | significantly reduced | CCCNC(=O)c1cccc(NS(=O)(=O)c2cccnc2)c1 [FX2149, N-propyl-3-(pyridine-3-sulfonamido)benzamide] |  | ~90% | significantly reduced | reduced | protected | significantly increased | significantly reduced | 57% | significantly reduced | significantly reduced | ~43%

Source: patent US9701627B2, “LRRK2 GTP binding inhibitors for treatment of Parkinson's disease and neuroinflammatory disorders” (University of Maryland, Baltimore, priority 2014, dated 2017)
